Measurements from patent US20240277705A1, “DOSAGE REGIMENS FOR ECUBECTEDIN” (PHARMA MAR S.A., priority 2021, published 2024).

Assays:
[1] = system: RXF 486L (hypernephroma, poorly differentiated); assay: Propidium iodide monolayer cell proliferation assay, RXF 486L; type: cell-based, human; settings: four days of treatment
Experimental: Working stock solution of PM14 was prepared in DMSO at a concentration of 1.042 mM and small aliquots were stored at −20° C. On each day of an experiment, a frozen aliquot of the working stock solution was thawed and stored at room temperature prior to and during treatment.
Subsequent dilutions were done with complete RPMI 1640 cell culture medium. DMSO stock solutions were first diluted 1:22 (corresponding to 4.5% v/v DMSO). Starting with this solution, serial dilutions in half-log steps with cell culture medium were done using an intermediate dilution plate. Finally, 10 μl taken from the intermediate dilution plate were transferred to 140 μl/well of the cell culture plate. […]
Cell proliferation assay: A modified propidium iodide (PI) based monolayer assay was used to assess the anti-cancer activity of the compounds (Dengler WA, Schulte J, Berger DP, Mertelsmann R, Fiebig HH, Anti-Cancer Drugs 1995, 6: 522-532). Briefly, cells were harvested from exponential phase cultures, counted and plated in 96 well flat-bottom microtiter plates at a cell density of 4,000 to 30,000 cells/well dependent on the cell line's growth rate. […] After an incubation period of 1-2 hours at room temperature, fluorescence (FU) was measured using the Enspire Multimode Plate Reader (excitation A=530 nm, emission A=620 nm) to quantify the amount of attached viable cells. […]

[2] = system: MRI-H-121 xenografts (human renal carcinoma tumor line); assay: MRI-H-121 mouse xenograft study, antitumor activity; type: in vivo, mice; settings: 1.25 mg/kg i.v. days 0, 7 and 14
Experimental: Compounds: Vials of off-white lyophilized PM14 cake were stored at −20° C. The cake was reconstituted with 2 ml of water for injection (Sigma-Aldrich, Co) to a concentration of 0.5 mg/ml. Further dilutions were made with a 5% glucose solution for injection/USP (Baxter, Inc.). A clear PM14 solution was obtained.
Animals: Female athymic nu/nu mice between 4 to 6 weeks of age were purchased from Envigo (Barcelona, Spain).
Tumor line: MRI-H-121 is a human renal carcinoma tumor line, originally obtained from the DCT Tumor Bank. Developed by Dr. A. E. Bogden, Mason Research Institute MA and maintained as a serial transplanted tumor line in athymic nude mice. Original tissue came from a patient at U. of Mass. Med. Center.
Study groups: Briefly, 4 to 6 week-old female athymic nu/nu mice were subcutaneously implanted into their right flank with a MRI-H-121 tissue from serial transplanted donor mice. Tumors were removed from donor animals and were cut into fragments (3 mm^3). Tissue was debrided of membrane, hemorrhagic and necrotic areas, placed in Matrigel™ (Corning Incorporated Life Sciences) and subcutaneously implanted. Recipient mice were anesthetised by inhalation of isoflurane, a small incision into the skin of the back was made and one tumor fragment per mouse was transplanted with tweezers. The mice were monitored daily.
Tumor bearing animals were randomly allocated into 2 groups (N=10/group): PM14 administered at 1.25 mg/kg and placebo. All treatments were intravenously administered once a week for 3 consecutive weeks (days 0, 7 and 14).
Tumor measurements were determined using digital calipers (Fowler Sylvac, S235PAT). The formula to calculate volume for a prolate ellipsoid was used to estimate tumor volume (mm^3) from 2-dimensional tumor measurements:
Where, a: length (longest diameter) and b: width (shortest diameter) in mm of a tumor.
Tumor volume and animal body weights were measured 2-3 times per week starting from the first day of treatment.
When tumors reached ca. 190 mm^3, tumor bearing animals were randomly allocated into the following experimental groups (N=10/group):
Treatments were initiated on Day 0 and were intravenously administered once per week for 3 consecutive weeks (days 0, 7 and 14).
Tumor volume data from groups following the 1st, 2nd, 3rd, 4th and 5th weeks were compared using a two tailed Mann Whitney U test. The data are presented as medians and interquartile range (IQR).
Complete tumor regression (CR) was defined when tumor volume <63 mm^3 for 2 or more consecutive measurements. Survival statistical differences between groups were assessed by Kaplan Meier curves applying the log rank test.

MEXF 276L (melanoma) = assay: Propidium iodide monolayer cell proliferation assay, MEXF 276L; type: cell-based, human
Experimental: (§1) Cell proliferation assay: A modified propidium iodide (PI) based monolayer assay was used to assess the anti-cancer activity of the compounds (Dengler WA, Schulte J, Berger DP, Mertelsmann R, Fiebig HH, Anti-Cancer Drugs 1995, 6: 522-532). Briefly, cells were harvested from exponential phase cultures, counted and plated in 96 well flat-bottom microtiter plates at a cell density of 4,000 to 30,000 cells/well dependent on the cell line's growth rate. After a 24 h recovery period, to allow the cells to resume exponential growth, 10 μl of culture medium (4 control wells/cell line/plate) or of culture medium with test compounds were added. PM14 was applied at ten concentrations in half-log increments in duplicates up to 3.16 pM and treatment continued for four days. […] After an incubation period of 1-2 hours at room temperature, fluorescence (FU) was measured using the Enspire Multimode Plate Reader (excitation A=530 nm, emission A=620 nm) to quantify the amount of attached viable cells.
(§2) IC50 and IC70 values were calculated by 4 parameter non-linear curve fit using Oncotest Warehouse Software. […]
(§3) IC50 values were determined as described in Example 2, but using the following human cancer cell lines: • MEXF 276L (melanoma) • MEXF 462NL (melanoma) • MEXF 1341L (melanoma)

MEXF 1341L (melanoma) = assay: Propidium iodide monolayer cell proliferation assay, MEXF 1341L; type: cell-based, human; settings: MEXL 1341L
Experimental: as §1, §2, §3

For `COc1c(C)cc2c(c1O)[C@@H]1[C@@H]3[C@@H]4SC[C@]5(N[C@H](CO)Cc6c5[nH]c5ccccc65)C(=O)OC[C@@H](c5c6c(c(C)c(OC(C)=O)c54)OCO6)N3[C@@H](O)[C@H](C2)N1C` [PM14, ECUBECTEDIN], the IC50 ([1]; Homo sapiens, 96 h, read-out: IC50, μM (geometric mean)) was 0.002 µM, the “IC70, μM (geometric mean)” value [1] was 0.002 µM and the “Median survival time” value [2] was 32.5 days. For the same compound, the antitumor activity [2] was “very strong antitumor activity”, the “TV, mm^3 median” value ([2]; Day 0) was 190.8 mm^3 and the “TV, mm^3 median” value ([2]; Day 7, 1.25 mg/kg) was 401.2 mm^3. For the same compound, the “TV, mm^3 median” value ([2]; Day 14, 1.25 mg/kg) was 472.7 mm^3, the “TV, mm^3 median” value ([2]; Day 21, 1.25 mg/kg) was 743.8 mm^3 and the “TV, mm^3 median” value ([2]; Day 28, 1.25 mg/kg) was 1392 mm^3. For the same compound, the “TV, mm^3 median” value ([2]; Day 35, 1.25 mg/kg) was 2015 mm^3, the “IC70, μM (geometric mean)” value (MEXF 276L (melanoma)) was 0.0003 µM and the IC50 (MEXF 276L (melanoma); Homo sapiens, MEXF276L, read-out: IC50, μM (geometric mean)) was 0.0002 µM. For the same compound, the IC50 (MEXF 1341L (melanoma); Homo sapiens, MEXF 1341L, read-out: IC50, μM (geometric mean)) was 0.0004 µM and the “IC70, μM (geometric mean)” value (MEXF 1341L (melanoma)) was 0.0006 µM.
